3 molecules from paper PMC12346966, “Targeting the Cell Wall Salvage Pathway: Dual-Enzyme Inhibition of AmgK and MurU as a Strategy Against Antibiotic Resistance” (International Journal of Molecular Sciences, 2025) can be followed below.

Broadly, the ΔTm is the change in melting temperature against a reference sample. The term IC50 denotes the point on the concentration scale where inhibition reaches its midpoint.

Assay [1] addresses T1, PaMurU (Pseudomonas aeruginosa, UniProt Q9I5U0).
T1 construct: gene murU
In words: SUPR-DSF thermal shift (no Kd); nucleotide preference in enzyme assay. Format: binding.

Assay [2] has as its target T1, PaMurU. In words: malachite green dual-enzyme assay IC50; target assigned by ESI-MS; SUPR-DSF shift +[…] °C. The class given is biochemical.
For assay [3], the target named is T1, PaMurU. Put plainly: malachite green dual-enzyme assay IC50; target assigned by ESI-MS. Format: biochemical.

T1 sequence (Q9I5U0 whole entry): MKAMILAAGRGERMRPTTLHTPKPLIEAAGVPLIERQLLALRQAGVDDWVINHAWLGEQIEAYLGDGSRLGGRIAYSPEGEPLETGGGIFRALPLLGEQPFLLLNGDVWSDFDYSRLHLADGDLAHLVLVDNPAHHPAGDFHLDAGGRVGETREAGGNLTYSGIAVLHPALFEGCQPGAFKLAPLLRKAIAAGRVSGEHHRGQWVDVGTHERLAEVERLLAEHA

In the case of `O=c1ccn([C@@H]2O[C@H](COP(=O)(O)OP(=O)(O)OP(=O)(O)O)[C@@H](O)[C@H]2O)c(=O)[nH]1` [UTP], the ΔTm at PaMurU [1] came to 3.86 °C. For `Nc1c(/N=N/c2ccc(-c3ccc(/N=N/c4cc(S(=O)(=O)O)c5ccccc5c4N)cc3)cc2)cc(S(=O)(=O)O)c2ccccc12` [compound 2, 4-amino-3-[[4-[4-[(1-amino-4-sulfonatonaphthalen-2-yl)diazenyl]phenyl]phenyl]diazenyl] naphthalene-1-sulfonate], on PaMurU [2], the IC50 was found to be 14 µM. `CCCCCCCCCCCCCCCC[N+](C)(C)C` [compound 1, CTAB] showed an IC50 against PaMurU [3] of 8.25 µM.
